≈ marks a conversion by molar mass, not a printed value.
Columns and labels:
tested microorganisms = test: antimicrobial activity in liquid nutrient medium (serial dilution, turbidity); type: cell-based
Experimental: (b) determination of the antimicrobial activity of antibiotics and their derivatives in liquid nutrient medium-- table 2.
The antimicrobial activity of antibiotics and their derivatives in liquid nutrient medium has been determined by making serial dilutions of antibiotics in the manner described above and by mixing of 0.5 ml of antibiotic solution with 4.5 ml of medium inoculated with tested microorganisms and prepared after Sabouraud without agar and with the addition of tarchocilin in the amount of 25 mg per 1 l. Solutions were allowed to stand for 48 hours at the temperature of 32° C.
Minimum concentration that inhibits the microorganisms growth has been determined on the basis of turbidity determined by extinction growth at […]; results are compared in table 2.

Candida albicans [1] = test: antimicrobial activity in solid nutrient medium (serial dilution), Candida albicans; type: cell-based; conditions: solid Sabouraud medium, 36° C, 24 hours
Experimental: (§1) (a) determination of the antimicrobial activity of antibiotics and their derivatives in solid nutrient medium-- table 1
(§2) The antimicrobial activity in solid nutrient medium has been estimated with the aid of the serial dilution method as follows: 1 mg of antibiotic was dissolved in 1 ml of dimethylsulphoxide and diluted with 9 ml of sterile water. Serial dilutions in water had been performed and the minimum concentration inhibiting the growth of standard strains of Candida albicans and Saccahromyces cerevisiae estimated: 0.5 ml of the antibiotic solution was mixed in a Petri dish 10 cm in diameter with 9.5 ml of Sabouraud medium having a temperature of about 60° C. After mixing, solidifying the nutrient agar and inoculating the test microorganism on the surface, they were incubated at 36° C for 24 hours. The minimum inhibitory concentration was stated on the basis of observed absence of microorganism growth.

Saccahromyces cerevisiae = test: antimicrobial activity in solid nutrient medium (serial dilution), Saccharomyces cerevisiae; type: cell-based; conditions: solid Sabouraud medium, 36° C, 24 hours
Experimental: as §1, §2

Candida albicans [2] = test: inhibition of pathogenic strains isolated from contaminated human members, Candida albicans; type: cell-based; conditions: 12 strains studied
Experimental: (§3) Studies were also conducted on the activity of the glucose derivative of nystatin, as compared with nystatin, in relation to a series of pathogenic strains of Candida and Geotrichum isolated from contaminated human members.

Candida sp. = test: inhibition of pathogenic strains isolated from contaminated human members, Candida sp.; type: cell-based; conditions: 8 strains studied
Experimental: as §3

Geotrichum sp. = test: inhibition of pathogenic strains isolated from contaminated human members, Geotrichum sp.; type: cell-based; conditions: 12 strains studied
Experimental: as §3

[3] = liquid medium after Sabouraud without agar, 48 hours, 32° C, extinction at 660 mm
[4] = Candida albicans after 24 hrs, 3.12 mcg/ml
[5] = Candida albicans after 24 hrs, 6.25 mcg/ml
[6] = Candida albicans after 24 hrs, 12.5 mcg/ml
[7] = Candida albicans after 24 hrs, 25.0 mcg/ml
[8] = Candida albicans after 24 hrs, 50.0 mcg/ml
[9] = Candida albicans after 48 hrs, 3.12 mcg/ml
[10] = Candida albicans after 48 hrs, 6.25 mcg/ml
[11] = Candida albicans after 48 hrs, 12.5 mcg/ml
[12] = Candida albicans after 48 hrs, 25.0 mcg/ml
[13] = Candida albicans after 48 hrs, 50.0 mcg/ml
[14] = Candida sp. after 24 hrs, 3.12 mcg/ml
[15] = Candida sp. after 24 hrs, 6.25 mcg/ml
[16] = Candida sp. after 24 hrs, 12.5 mcg/ml
[17] = Candida sp. after 24 hrs, 25.0 mcg/ml
[18] = Candida sp. after 24 hrs, 50.0 mcg/ml
[19] = Candida sp. after 48 hrs, 3.12 mcg/ml
[20] = Candida sp. after 48 hrs, 6.25 mcg/ml
[21] = Candida sp. after 48 hrs, 12.5 mcg/ml
[22] = Candida sp. after 48 hrs, 25.0 mcg/ml
[23] = Candida sp. after 48 hrs, 50.0 mcg/ml
[24] = Geotrichum sp. after 24 hrs, 3.12 mcg/ml
[25] = Geotrichum sp. after 24 hrs, 6.25 mcg/ml
[26] = Geotrichum sp. after 24 hrs, 12.5 mcg/ml
[27] = Geotrichum sp. after 24 hrs, 25.0 mcg/ml
[28] = Geotrichum sp. after 24 hrs, 50.0 mcg/ml
[29] = Geotrichum sp. after 48 hrs, 3.12 mcg/ml
[30] = Geotrichum sp. after 48 hrs, 6.25 mcg/ml
[31] = Geotrichum sp. after 48 hrs, 12.5 mcg/ml
[32] = Geotrichum sp. after 48 hrs, 25.0 mcg/ml
[33] = Geotrichum sp. after 48 hrs, 50.0 mcg/ml

C[C@@H]1[C@H](O)[C@@H](C)/C=C/C=C/CC/C=C/C=C/C=C/C=C/[C@H](O[C@@H]2O[C@H](C)[C@@H](O)[C@H](NC3O[C@H](CO)[C@@H](O)[C@H](O)[C@H]3O)[C@@H]2O)C[C@@H]2O[C@](O)(C[C@@H](O)[C@H](O)CC[C@@H](O)C[C@@H](O)C[C@@H](O)CC(=O)O[C@H]1C)C[C@H](O)[C@H]2C(=O)[O-].[Na+] (stereo partly drawn)
solubility / dispersion in water: form true solutions free of colloids

C[C@@H]1[C@H](O)[C@@H](C)/C=C/C=C/CC/C=C/C=C/C=C/C=C/[C@H](O[C@@H]2O[C@H](C)[C@@H](O)[C@H](NC3O[C@H](CO)[C@@H](O[C@H]4O[C@H](CO)[C@@H](O)[C@H](O)[C@H]4O)[C@H](O)[C@H]3O)[C@@H]2O)C[C@@H]2O[C@](O)(C[C@@H](O)[C@H](O)CC[C@@H](O)C[C@@H](O)C[C@@H](O)CC(=O)O[C@H]1C)C[C@H](O)[C@H]2C(=O)[O-].[Na+] (stereo partly drawn)
solubility / dispersion in water: form true solutions free of colloids

C[C@@H]1[C@H](O)[C@@H](C)/C=C/C=C/CC/C=C/C=C/C=C/C=C/[C@H](O[C@@H]2O[C@H](C)[C@@H](O)[C@H](NC3O[C@H](CO)[C@@H](O)[C@H](O)[C@H]3O)[C@@H]2O)C[C@@H]2O[C@](O)(C[C@@H](O)[C@H](O)CC[C@@H](O)C[C@@H](O)C[C@@H](O)CC(=O)O[C@H]1C)C[C@H](O)[C@H]2C(=O)O (stereo partly drawn) [NGL nystatin A1]
MIC (tested microorganisms; [3]): 1.0 µg/mL (≈ 0.919 µM)

CC1C=CC=CC=CC=CC=CC=CC=CC(OC2OC(C)C(O)C(N)C2O)CC2OC(O)(CC(O)CC(O)C(O)CCC(O)CC(O)CC(=O)OC(C)C(C)C1O)CC(O)C2C(=O)O (stereo not drawn) [amphotericin B]
MIC (tested microorganisms; 48 h): 0.05 µg/mL (≈ 0.0541 µM)

COc1cc2c(c3oc(-c4ccccc4)cc(=O)c13)C=CC(C)(C)O2 [candidin]
MIC (tested microorganisms; 48 h): 0.2 µg/mL (≈ 0.598 µM)

C[C@@H]1[C@H](O)[C@@H](C)/C=C/C=C/CC/C=C/C=C/C=C/C=C/[C@H](O[C@@H]2O[C@H](C)[C@@H](O)[C@H](NC3O[C@H](CO)[C@@H](O)[C@H](O)[C@H]3O)[C@@H]2O)C[C@@H]2O[C@](O)(C[C@@H](O)[C@H](O)CC[C@@H](O)C[C@@H](O)C[C@@H](O)CC(=O)O[C@H]1C)C[C@H](O)[C@H]2C(=O)O (stereo partly drawn) [glucose derivative of nystatin]
Minimum inhibitory concentration against Candida albicans (Candida albicans [1]): 2 µg/mL (≈ 1.84 µM)
Minimum inhibitory concentration against cerevisiae (Saccahromyces cerevisiae): 2 µg/mL (≈ 1.84 µM)
Number of strains the growth of which has been inhibited (Candida albicans [2]; [4]): 1 strains
Number of strains the growth of which has been inhibited (Candida albicans [2]; [5]): 11 strains
Number of strains the growth of which has been inhibited (Candida albicans [2]; [6]): 0 strains
Number of strains the growth of which has been inhibited (Candida albicans [2]; [7]): 0 strains
Number of strains the growth of which has been inhibited (Candida albicans [2]; [8]): 0 strains
Number of strains the growth of which has been inhibited (Candida albicans [2]; [9]): 0 strains
Number of strains the growth of which has been inhibited (Candida albicans [2]; [10]): 0 strains
Number of strains the growth of which has been inhibited (Candida albicans [2]; [11]): 12 strains
Number of strains the growth of which has been inhibited (Candida albicans [2]; [12]): 0 strains
Number of strains the growth of which has been inhibited (Candida albicans [2]; [13]): 0 strains
Number of strains the growth of which has been inhibited (Candida sp.; [14]): 2 strains
Number of strains the growth of which has been inhibited (Candida sp.; [15]): 5 strains
Number of strains the growth of which has been inhibited (Candida sp.; [16]): 0 strains
Number of strains the growth of which has been inhibited (Candida sp.; [17]): 1 strains
Number of strains the growth of which has been inhibited (Candida sp.; [18]): 0 strains
Number of strains the growth of which has been inhibited (Candida sp.; [19]): 0 strains
Number of strains the growth of which has been inhibited (Candida sp.; [20]): 2 strains
Number of strains the growth of which has been inhibited (Candida sp.; [21]): 3 strains
Number of strains the growth of which has been inhibited (Candida sp.; [22]): 2 strains
Number of strains the growth of which has been inhibited (Candida sp.; [23]): 1 strains
Number of strains the growth of which has been inhibited (Geotrichum sp.; [24]): 0 strains
Number of strains the growth of which has been inhibited (Geotrichum sp.; [25]): 5 strains
Number of strains the growth of which has been inhibited (Geotrichum sp.; [26]): 7 strains
Number of strains the growth of which has been inhibited (Geotrichum sp.; [27]): 0 strains
Number of strains the growth of which has been inhibited (Geotrichum sp.; [28]): 0 strains
Number of strains the growth of which has been inhibited (Geotrichum sp.; [29]): 0 strains
Number of strains the growth of which has been inhibited (Geotrichum sp.; [30]): 0 strains
Number of strains the growth of which has been inhibited (Geotrichum sp.; [31]): 9 strains
Number of strains the growth of which has been inhibited (Geotrichum sp.; [32]): 3 strains
Number of strains the growth of which has been inhibited (Geotrichum sp.; [33]): 0 strains

C[C@@H]1[C@H](O)[C@@H](C)/C=C/C=C/C=C/C=C/C=C/C=C/C=C/[C@H](O[C@@H]2O[C@H](C)[C@@H](O)[C@H](N)[C@@H]2O)C[C@@H]2O[C@](O)(C[C@@H](O)[C@H](O)CC[C@@H](O)CC(=O)C[C@@H](O)CC(=O)O[C@H]1C)C[C@H](O)[C@H]2C(=O)O [mycoheptin]
MIC (tested microorganisms; [3]): 2.5 µg/mL (≈ 2.71 µM)

CC1C=CC=CCCC=CC=CC=CC=CC(OC2OC(C)C(O)C(N)C2O)CC2OC(O)(CC(O)C(O)CCC(O)CC(O)CC(O)CC(=O)OC(C)C(C)C1O)CC(O)C2C(=O)O (stereo not drawn) [nystatin A1]
MIC (tested microorganisms; 48 h): 0.5 µg/mL (≈ 0.54 µM)

C[C@@H]1[C@H](O)[C@@H](C)/C=C/C=C/CC/C=C/C=C/C=C/C=C/C(O[C@H]2O[C@H](C)[C@@H](O)[C@H](N)[C@@H]2O)CC2O[C@](O)(CC(O)C(O)CCC(O)CC(O)CC(O)CC(=O)O[C@H]1C)CC(O)C2C(=O)O (stereo partly drawn) [nystatin]
Minimum inhibitory concentration against Candida albicans (Candida albicans [1]): 2 µg/mL (≈ 2.16 µM)
Minimum inhibitory concentration against cerevisiae (Saccahromyces cerevisiae): 2 µg/mL (≈ 2.16 µM)
Number of strains the growth of which has been inhibited (Candida albicans [2]; Candida albicans after 24 hrs, 1.56 mcg/ml): 1 strains
Number of strains the growth of which has been inhibited (Candida albicans [2]; [4]): 11 strains
Number of strains the growth of which has been inhibited (Candida albicans [2]; [5]): 0 strains
Number of strains the growth of which has been inhibited (Candida albicans [2]; [6]): 0 strains
Number of strains the growth of which has been inhibited (Candida albicans [2]; [7]): 0 strains
Number of strains the growth of which has been inhibited (Candida albicans [2]; [8]): 0 strains
Number of strains the growth of which has been inhibited (Candida albicans [2]; Candida albicans after 48 hrs, 1.56 mcg/ml): 0 strains
Number of strains the growth of which has been inhibited (Candida albicans [2]; [9]): 2 strains
Number of strains the growth of which has been inhibited (Candida albicans [2]; [10]): 10 strains
Number of strains the growth of which has been inhibited (Candida albicans [2]; [11]): 0 strains
Number of strains the growth of which has been inhibited (Candida albicans [2]; [12]): 0 strains
Number of strains the growth of which has been inhibited (Candida albicans [2]; [13]): 0 strains
Number of strains the growth of which has been inhibited (Candida sp.; Candida sp. after 24 hrs, 1.56 mcg/ml): 2 strains
Number of strains the growth of which has been inhibited (Candida sp.; [14]): 3 strains
Number of strains the growth of which has been inhibited (Candida sp.; [15]): 1 strains
Number of strains the growth of which has been inhibited (Candida sp.; [16]): 2 strains
Number of strains the growth of which has been inhibited (Candida sp.; [17]): 0 strains
Number of strains the growth of which has been inhibited (Candida sp.; [18]): 0 strains
Number of strains the growth of which has been inhibited (Candida sp.; Candida sp. after 48 hrs, 1.56 mcg/ml): 0 strains
Number of strains the growth of which has been inhibited (Candida sp.; [19]): 3 strains
Number of strains the growth of which has been inhibited (Candida sp.; [20]): 1 strains
Number of strains the growth of which has been inhibited (Candida sp.; [21]): 3 strains
Number of strains the growth of which has been inhibited (Candida sp.; [22]): 1 strains
Number of strains the growth of which has been inhibited (Candida sp.; [23]): 0 strains
Number of strains the growth of which has been inhibited (Geotrichum sp.; Geotrichum sp. after 24 hrs, 1.56 mcg/ml): 0 strains
Number of strains the growth of which has been inhibited (Geotrichum sp.; [24]): 2 strains
Number of strains the growth of which has been inhibited (Geotrichum sp.; [25]): 10 strains
Number of strains the growth of which has been inhibited (Geotrichum sp.; [26]): 0 strains
Number of strains the growth of which has been inhibited (Geotrichum sp.; [27]): 0 strains
Number of strains the growth of which has been inhibited (Geotrichum sp.; [28]): 0 strains
Number of strains the growth of which has been inhibited (Geotrichum sp.; Geotrichum sp. after 48 hrs, 1.56 mcg/ml): 0 strains
Number of strains the growth of which has been inhibited (Geotrichum sp.; [29]): 0 strains
Number of strains the growth of which has been inhibited (Geotrichum sp.; [30]): 5 strains
Number of strains the growth of which has been inhibited (Geotrichum sp.; [31]): 7 strains
Number of strains the growth of which has been inhibited (Geotrichum sp.; [32]): 0 strains
Number of strains the growth of which has been inhibited (Geotrichum sp.; [33]): 0 strains

C[C@@H]1C/C=C/C=C/C=C/C=C/[C@H](O[C@@H]2O[C@H](C)[C@@H](O)[C@H](N)[C@@H]2O)C[C@@H]2O[C@](O)(C[C@@H](O)C[C@H]3O[C@@H]3/C=C/C(=O)O1)C[C@H](O)[C@H]2C(=O)O [pimaricin]
MIC (tested microorganisms; 48 h): 2.5 µg/mL (≈ 3.76 µM)

CCC[C@@H]1C/C=C/C=C/C=C/C=C/[C@H](O[C@@H]2O[C@H](C)[C@@H](O)[C@H](N)[C@@H]2O)C[C@@H]2O[C@](O)(C[C@@H](O)CCCC(=O)C[C@@H](O)[C@H](CC)C(=O)O1)C[C@H](O)[C@H]2C(=O)O [rimocidin]
MIC (tested microorganisms; [3]): 2.5 µg/mL (≈ 3.26 µM)

candicidin
MIC (tested microorganisms; [3]): 0.001 µg/mL

trichomycin
MIC (tested microorganisms; [3]): 0.001 µg/mL
